Data: patent publication US6452052B1, “Aniline disulfide derivatives for treating allergic diseases” (Alcon Universal Ltd., priority 2000, dated 2002)
“And” between values parts separate entries of the source, which are not always exact repeats. Equal values may be shown once. Read-outs that look alike come from different tables or passages of the source.

System: human conjunctival tissue mast cells
Experiment: Inhibition of anti-human IgE-induced histamine release from human conjunctival tissue mast cells (HCTMC)
Type: cell-based
Description: Methods detailing preparation of monodispersed HCTMC and mediator release studies with these cells have been described (U.S. Pat. No. 5,360,720 and Miller et al, Ocular Immunology and Inflammation, 4(1):39-49 (1996)). Briefly, human conjunctival tissue mast cells were isolated from post-mortem tissue donors obtained within 8 hours of death by various eye banks and transported in Dexsol® corneal preservation medium, or equivalent. Tissues were enzymatically digested by repeated exposure (30 min. at 37° C.) to collagenase and hyaluronidase (2× with 200 U each/gram tissue, then 2-4× with 2000 U each/gram tissue) in Tyrode's buffer containing 0.1% gelatin. (Tyrode's buffer (in mM): 137 NaCl, 2.7 KCl, 0.35 NaH2PO4, 1.8 CaCl2, 0.98 MgCl2, 11.9 NaHCO3, and 5.5 glucose). Each digestion mixture was filtered over Nitex® cloth (100 μm mesh, Tetko, Briarcliff Manor, N.Y.) and washed with an equal volume of buffer. Filtrates were centrifuged at 825×g (7 min). Pellets were resuspended in buffer then combined for enrichment over a […] Percoll® cushion. The enriched pellet was washed, resuspended in supplemented RPMI 1640 medium and incubated at 37° C. to equilibrate.
Cells were harvested from the culture plate and counted for viability (trypan blue exclusion) and mast cell number (toluidine blue O). Mast cells (5000/tube; 1 mL final volume) were challenged (37° C.) for 15 min with goat-anti-human IgE (10 μg/mL) following treatment (15 minutes; 37° C.) with test drug or Tyrode's buffer. Total and non-specific release controls were exposed to 0.1% Triton X-100 and goat IgG (10 μg/mL), respectively. The reaction was terminated by centrifugation (500×g, 4° C., 10 min). Supernatants were stored at −20° C. until analyzed for histamine content by RIA (Beckman Coulter, Chicago, Ill.).
All test drugs were made to solution immediately prior to use. Each was dissolved in DMSO at 10 mM or greater concentration and then diluted in Tyrode's buffer containing 0.1% gelatin over the concentration for evaluation.
Inhibition of histamine release was determined by direct comparison of with anti-IgE challenged mast cells using Dunnett's t-test (Dunnett, “A multiple comparison procedure for comparing treatments with a control”, J. Amer. Stat. Assoc. (1955), 50:1096-1121).

[1] = Homo sapiens, Mast cell, bracketed value = mean of the two determinations, anti-IgE challenged human conjunctival mast cells, read-out: IC50(nM), inhibition of histamine release, value in square brackets
[2] = individual determinations, mast cells 5000/tube, 15 min drug treatment at 37° C., then 15 min challenge with goat-anti-human IgE (10 μg/mL), histamine by RIA, read-out: IC50(nM), inhibition of histamine release

SMILES | IC50 [1] [nM] | IC50 [2] | IC50 (Homo sapiens, Mast cell, 0.25 h, individual determinations, mast cells 5000/tube, 15 min drug treatment at 37° C., then 15 min challenge with goat-anti-human IgE (10 μg/mL), histamine by RIA, read-out: IC50(nM), inhibition of histamine release) [nM]
C=C(C)C(=O)Nc1ccccc1SSc1ccccc1NC(=O)C(=C)C [Compound 3] | 491 | 690 nM and 292 nM | –
CCOC(=O)Nc1ccccc1SSc1ccccc1NC(=O)OCC [Compound 5] | 1190 | – | –
CC(C)(C)C(=O)Nc1ccccc1SSc1ccccc1NC(=O)C(C)(C)C [Compound 6] | – | – | 1700

Next, values leading:

IC50 [1] [nM] | IC50 [2] | IC50 (Homo sapiens, Mast cell, 0.25 h, individual determinations, mast cells 5000/tube, 15 min drug treatment at 37° C., then 15 min challenge with goat-anti-human IgE (10 μg/mL), histamine by RIA, read-out: IC50(nM), inhibition of histamine release) [nM] | SMILES
– | 3180 nM and < 1000 nM | – | CC(O)CC(=O)Nc1ccccc1SSc1ccccc1NC(=O)CC(C)O (stereo not drawn) [Compound 4]
56 | 85 nM and 27 nM | – | C=CCC(=O)Nc1ccccc1SSc1ccccc1NC(=O)CC=C [Compound 1]
481 | 656 nM and 306 nM | – | CC(=O)Nc1ccccc1SSc1ccccc1NC(C)=O [Compound 2]
